# Results taken from patent EP1669379B1, “3,5-DIMETHYL-1-ADAMANTYL-AMMONIUM POLYMERIC SALTS AND THE USE THEREOF IN THE FORM OF ANTIVIRAL AGENTS” (priority 2003, dated 2005).
# Structures can show the parent of a compound that is named as a salt. Where two headings read alike, the source gives them in different places.
# Experiments:
# [1] = tested on: influenza virus of B type; conditions: statement with reference to USSR author's certificates; cited from earlier work
# [2] = solubility (qualitative); assay type: physicochemical
# [3] = tested on: influenza virus of B type; assay: summary statement on activity against influenza virus of B type; conditions: conclusion from the tables; protection index less than 20 is considered inactive
# Text: At the same time synthesized (claimed) polymeric compounds of 3.5-dimethyl-1-adamantylamine have an effective level of antiviral activity against the influenza virus of B type, both in the infection model of chick-embryo and mice.
# [4] = acute toxicity, single oral administration to mice (LD50); conditions: both sexes, Balb, mouse, in vivo
# Method: The toxicity level of claimed compounds was assessed according to a general index of acute toxicity - average fatal dose of LD50. The study was held with a single oral administration of the agent to white mice of both sexes, line "Balb", weight 18 - 20 g, and to white rats, line "Vistar", weight 130 - 250 g (female) and 225 - 370 g (male). The medications were administered to mice in the dose range from 250 to 1100 mg/kg, and to rats in the range of 480 - 2315 mg/kg.
# [5] = tested on: virus of the influenza of the type A/Victoria35/72; assay type: cell-based; conditions: CAC model; dose 25.0 mcg/ml as calculated per equimolecular content of DMAAM
# [6] = tested on: virus of the influenza B/Li/40; assay: antiviral activity in infected mice, medical and preventive treatment scheme, oral; assay type: in vivo; conditions: single dose 50 mg/ml as calculated per equimolecular content of DMAAM, administration frequency 5
# Method: (§1) The tests of antiviral activity of produced polymeric salts were conducted against the viruses of types A and B influenza using the tissue culture of chorionallantoic coat fragments from chick-embryos (model CAC) and infecting animals (mice).
# (§2) In each experimental and control (placebo) group 20 mice of both sexes were infected.
# [7] = tested on: virus of the influenza A/Li/40; assay: antiviral activity in tissue culture of chorionallantoic coat fragments (CAC model), A/Li/40; assay type: cell-based, chick-embryos; conditions: dose 25.0 mcg/ml as calculated per equimolecular content of DMAAM
# Method: as §1
# [8] = tested on: influenza A/Aichi/2/68 virus; assay: duration of antiviral activity in infected mice, preventive application scheme, single oral dose; assay type: in vivo; conditions: for Protection index of medication (%) when administered in specified periods (hours) before contamination: mice, single oral dose 100mg/kg as calculated per equimolecular DMAAM content
# Method: as §1, §2
compound,measurement,setting,value
"CC(N)C12CC3CC(CC(C3)C1)C2.Cl (stereo not drawn) [remantadin, hydrochloride α-methyl-α-(1-adamantyl)methylamine]",antiviral activity against the influenza virus of B type,[1],is not effective
"CC12CC3CC(C)(C1)CC(N)(C3)C2 [3.5-dimethyl-l-adamantylamine, 3.5-dimethyl-1-adamantylamine]",solubility in water,[2],insoluble in water
"Cl.NC12CC3CC(CC(C3)C1)C2 [midantan, hydrochloride 1-adamatilamine]",antiviral activity against the influenza virus of B type,[1],is not effective
"CC12CC3CC(C)(C1)CC(N)(C3)C2 [HC - DMAAM (memantine), hydrochloride 3.5-dimethyl-1-adamantylamine]",antiviral activity against the influenza virus of B type,[3],is not effective
same,LD50,[4],363 mg/kg
same,"Protection index of the medication, %",[5],39%
same,"Protection index of medication, %",[6],7.1%
same,"The number of animals Died, %",[6],65%
same,"The number of animals Died, Animal units",[6],13
same,"Protection index of the medication, %",[7],0%
same,Protection index of medication (%) when administered in specified periods (hours) before contamination,[8]; 1 hour before contamination,37%
same,Protection index of medication (%) when administered in specified periods (hours) before contamination,[8]; 24 hours before contamination,28%
same,Protection index of medication (%) when administered in specified periods (hours) before contamination,[8]; 48 hours before contamination,22%
same,Protection index of medication (%) when administered in specified periods (hours) before contamination,[8]; 72 hours before contamination,11%
same,Protection index of medication (%) when administered in specified periods (hours) before contamination,[8]; 96 hours before contamination,9%
same,Protection index of medication (%) when administered in specified periods (hours) before contamination,[8]; 120 hours before contamination,7%
same,time of administration before infection at which the medication was effective,"[8]; prevention scheme, same dose as calculated per 3.5-dimethyl-1-adamantylamine content",24 h
